According to US11090349B2, “Plant extract obtained from Morus plant leaves, compositions containing same, method of extraction and uses thereof” (Botanic Century (Beijing) Co. Ltd., priority 2009, dated 2021):

Key:
B16 melanoma cells [1] = experiment: Melanin content in B16 melanoma cells; type: cell-based; conditions: different concentrations
Description: The aim was to investigate the impact of the test samples on melanin content of melanoma cell line B16. […] The method was as set out below: • 1. Harvest the melanoma B16 cells at Log phase and adjust the cell suspension to an appropriate concentration, divide into 24 well plates and allow the cells to adhere to the walls. • 2. […] Add 250 μl WIP lysis buffer and allow to lyse in an ice bath, vortex mixing once every 5 min for 4-5 times. • 4. Centrifuge for 10 min at 12000 rpm at 4° C. Discard the supernatant and dissolve the precipitate with 400 μl 1N NaOH and keep it in a 80° C. water bath for 1 hour. • 5. Use a microplate reader to measure OD value at 405 nm, and calculate the relative content. Results and discussion: The B16 melanoma cells were seeded at a density of 4×10^4 cell per well of 24-well culture plates, incubated at 37° C. under 5% CO2 atmosphere for 24 h. […] The cells were washed with phosphate-buffered saline, collected in centrifuge tube. After centrifugation, cell pellets were disrupted in WIP lysis buffer containing phenylmethylsulfonyl fluoride (PMSF) on ice for 30 min. The solution was centrifuged for 10 min at 12000 g at 4° C., the pellets were dissolved in 1N NaOH by boiling for 1 h at 70° C. The melanin content was assayed at 405 nm in a spectrophotometer.

tyrosinase [2] = experiment: Indirect effect on tyrosinase activity, B16 cells cultured with sample for three days; type: cell-based; conditions: B16 cells incubated three days with test compound before extraction
Description: (§1) The aim was to investigate the impact and mechanisms of action of the test samples on the TYR activity in melanoma cell line B16.
(§2) B16 melanoma cells were washed with phosphate-buffered saline and collected in a centrifuge tube. After centrifugation, WIP-lysis buffer containing phenyl-methylsulfonyl fluoride (PMSF) was added to the cell pellet to lyse the cells and the solution was left to stand on ice for 30 minutes. The solution was subsequently centrifuged for 10 min, at 12000 g, at 4° C., with the supernatant (cell extract) containing the cellular components being retained for assay purposes.

tyrosinase [3] = biological target: T1, tyrosinase (Mus musculus, UniProt P11344); experiment: Direct effect on tyrosinase catalytic activity in B16 cell extract; type: biochemical; conditions: incubated 1 hour at 37° C., L-dopa
T1 construct: supernatant (cell extract) containing the cellular components being retained for assay purposes; endogenous in cells; host or cells: B16 melanoma cells
T1 sequence (P11344 19-533): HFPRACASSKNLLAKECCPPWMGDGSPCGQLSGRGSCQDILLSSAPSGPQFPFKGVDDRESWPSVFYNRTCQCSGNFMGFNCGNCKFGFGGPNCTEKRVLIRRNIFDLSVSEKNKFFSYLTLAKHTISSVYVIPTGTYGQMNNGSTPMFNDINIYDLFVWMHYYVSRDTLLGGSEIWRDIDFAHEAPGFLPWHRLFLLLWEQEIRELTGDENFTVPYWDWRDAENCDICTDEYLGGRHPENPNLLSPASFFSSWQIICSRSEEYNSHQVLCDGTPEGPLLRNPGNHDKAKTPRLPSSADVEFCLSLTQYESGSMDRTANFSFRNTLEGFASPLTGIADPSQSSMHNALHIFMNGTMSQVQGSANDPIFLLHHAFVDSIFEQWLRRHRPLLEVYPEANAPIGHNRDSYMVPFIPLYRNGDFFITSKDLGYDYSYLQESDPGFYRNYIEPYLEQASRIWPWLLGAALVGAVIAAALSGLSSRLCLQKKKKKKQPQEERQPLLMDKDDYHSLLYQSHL
Description: as §1, §2
The plate was incubated at 37° C. for 1 hour, and then 80 μl L-dopa was added to each well. The absorbance (492 nm) of each well was recorded at 5 minute intervals for 30 minutes at 37° C. using a microplate reader.

B16 melanoma cells [4] = experiment: Cell viability, MTT assay; type: cell-based; conditions: for growth inhibition of B16 melanoma cells (MTT): below the concentration of 200 ppm
Description: Cell survival was measured using the MTT assay, which is based on the conversion of 3-(4,5-dimethylthiazol-2-yl)-2,5-diphenyltetrazolium bromide to MTT-formazan crystal by mitochondrial enzyme in viable cells. MTT was freshly prepared at 2 mg/ml in phosphate-buffered saline (PBS). […] Aliquots of 20 μl of MTT stock solution were added to the well at different time points throughout the experiment, and the plate was incubated at 37° C. for 4 h in a humidified 5% CO2 incubator. After 4 h, the formazan crystals of these cells were solubilized in 100 μl DMSO by gentle shaking. After 10 min, the amount of formazan was quantified spectrophotometrically using an ELISA plate reader at 540 nm.

Wistar rats = experiment: Blood glucose of Wistar rats after starch meal; type: in vivo, Wistar rat; conditions: positive control 25 mg/kg
Description: The reagents and apparatus are set out below: • (1) Mulberry leaf extract of Example 1 • (2) Saline • (3) Miglitol standard reference chemical • (4) 64 Wistar rats • (5) Johnson's One Touch Ultra blood glucose meter and Code 9 blood glucose test strips The method used was as set out below:
Animals received Morus extract via intraperitoneal injection (15 mg/kg or 30 mg/kg) or intragastrically (25 mg/kg or 50 mg/kg). Miglitol (Glyset®) (25 mg/kg), an α-glucosidase inhibitor approved for type-2 diabetes was used as a positive control. Fasted blood-sugar levels were recorded as a baseline, and blood sugar levels were measured at time intervals 05.hr, 1 hr and 2 hrs after receiving a starch meal. The animals were dosed with Morus extract prior to receiving the starch meal.

Structure (SMILES): OCC1NCC(O)C(O)C1O (stereo not shown) [DNJ, 1-deoxynojirimycin]
- content of melanin compared to the control (B16 melanoma cells [1]): decreased significantly in a dose-dependent manner
- indirect effect on tyrosinase activity (tyrosinase [2]): dose-dependent decrease in tyrosinase activity
- direct effect on tyrosinase activity (tyrosinase [3]): no effect on tyrosinase activity
- growth inhibition of B16 melanoma cells (MTT) (B16 melanoma cells [4]): no growth inhibition

Structure (SMILES): OCCN1C[C@H](O)[C@@H](O)[C@H](O)[C@H]1CO [Miglitol]
- Blood glucose 0.5 h after giving starch (Wistar rats): 2.27 ± 0.71 mmol/L
- Blood glucose 1 h after giving starch (Wistar rats): 2.98 ± 0.52 mmol/L
- Blood glucose 2 h after giving starch (Wistar rats): 2.69 ± 0.35 mmol/L
- Fasted Glucose (Wistar rats; baseline): 3.04 ± 0.74 mmol/L

Structure (SMILES): O=C1O[C@H]([C@@H](O)CO)C([O-])=C1OP(=O)([O-])[O-].O=C1O[C@H]([C@@H](O)CO)C([O-])=C1OP(=O)([O-])[O-].[Mg+2].[Mg+2].[Mg+2] [VC-PMG, magnesium L-ascorbyl-2-phosphate]
- content of melanin compared to the control (B16 melanoma cells [1]): decreased significantly in a dose-dependent manner
- concentration above which viability of the cell decreased (B16 melanoma cells [4]; B16 melanoma cell): over 200 ppm
- growth inhibition of B16 melanoma cells (MTT) (B16 melanoma cells [4]): no growth inhibition

Structure (SMILES): OC[C@H]1O[C@@H](Oc2ccc(O)cc2)[C@H](O)[C@@H](O)[C@@H]1O [arbutin]
- indirect effect on tyrosinase activity (tyrosinase [2]): no effect on tyrosinase activity
- direct effect on tyrosinase activity (tyrosinase [3]): reduced the activity of tyrosinase in a dose-dependent manner
